Source: patent publication US20060281680A1, “Methods and compositions for modulating vascular integrity” (GENENTECH, INC., priority 2005, published 2006)

B1: VEGFR2-sel: KDR-selective VEGF mutant: VEGF D63S/G65M/L66R (protein)
chain: APMAEGGGQNHHEVVKFMDVYQRSYCHPIETLVDIFQEYPDEIEYIFKPSCVPLMRCGGCCNSEMRECVPTEESNITMQIMRIKPHQGQHIGEMSFLQHNKCECRPKKDRARQENPCGPCSERRKHLFVQDPQTCKCSCKNTDSRCKARQLELNERTCRCDKPRR
B2: VEGFR1-sel: Flt-selective VEGF mutant I43A/I46A/Q79A/I83 (protein)
chain: APMAEGGGQNHHEVVKFMDVYQRSYCHPIETLVDIFQEYPDEAEYAFKPSCVPLMRCGGCCNDEGLECVPTEESNITMAIMRIKPHQGQHIGEMSFLQHNKCECRPKKDRARQENPCGPCSERRKHLFVQDPQTCKCSCKNTDSRCKARQLELNERTCRCDKPRR
B3: PlGF: VEGFR-1 selective ligand (protein, UniProt P49763 19-221, looked up)
Placenta growth factor: LPAVPPQQWALSAGNGSSEVEVVPFQEVWGRSYCRALERLVDVVSEYPSEVEHMFSPSCVSLLRCTGCCGDENLHCVPVETANVTMQLLKIRSGDRPSYVELTFSQHVRCECRHSPGRQSPDMPGDFRADAPSFLPPRRSLPMLFRMEWGCALTGSQSAVWPSSPVPEEIPRMHPGRNGKKQQRKPLREKMKPERCGDAVPRR

Key:
Type in all cases: cell-based, human
DSCR1 [1] = test: DSCR1 expression analysis by real-time RT-PCR (TaqMan) in HUVECs; conditions: for DSCR1 mRNA levels: HUVECs, after 5.5 hours; for DSCR1 expression levels (real-time RT-PCR): serum-starved HUVECs, over 36 hours
From the text: (§1) Cells and cell assays. Primary human endothelial cells were purchased from Clonetics (Santa Rosa, Calif.) and cultured according to the manufacturer's instructions. For gene calling experiments, human umbilical vein endothelial cells (HUVECs) were purchased from Clonetics (BioWhittaker, Walkersville, Md.) and maintained in endothelial growth medium (EBM-2) complemented with 5% fetal calf serum (FCS) following the manufacturer's instructions. Cells (1×107) were split at a cell density of 19 000 cell/cm2 and triplicate experiments for each condition were run in parallel. Twenty-four hours after plating the cells, cell were washed 3 times with phosphate-buffered saline (PBS) and media (Clonetics) containing either 0.1% bovine serum albumin (BSA) or 0.1% BSA plus VEGF (30 ng/mL) or 5% FCS. RNA isolation and reverse transcription-PCR (RT-PCR) analysis was performed as described.^21 For cell culture experiments, the following conditions were used: human (h) VEGF, 30 ng/mL; hTNF-α, 10 ng/mL; PMA, 200 ng/mL (Calbiochem, LaJolla, Calif.); CsA, 1 μM (Calbiochem); IO 5 μM (Sigma, St Louis, Mo.); thapsigargin, 50 nM (Sigma). In one instance inhibiting (si) RNAs were generated by Dharmacon (Lafayette, Colo.) based on the full-length cDNAs of the respective gene and using the “Smart-pool” service (Dharmacon, Lafayette, Colo.). For adenoviral transduction survival experiments, human umbilical vein endothelial cells (HUVECs) were maintained in endothelial growth medium (EBM-2) complemented with 5% FCS following the manufacturer's instructions. 3×10^5 cells were split per well of a 6 well plate (Primaria, BD Biosciences, Bedford, Mass.) and duplicate experiments for each condition were run in parallel. Cells were infected with adenovirus (MOI=100) encoding for a gD peptide (Ad-Control), DSCR1 (Ad-DSCR1) or an antisense construct with the coding sequence inverted (Ad-DSCR1-AS) for 2 h in serum free media containing 10 mM […] and 10 nM MgCl2 on a vertical shaker at room temperature. Thereafter, 5 times the volume of regular growth medium containing 5% FCS was added and cells were kept for 1 day in a CO2 incubator. Thereafter, cells were washed three times with PBS and basal media (Clonetics, Santa Rosa, Calif.) containing 0.1 % BSA was added and PMA/IO, H202, and ZVAD as indicated. 24 hours after serum starvation and dosing, cell were counted on a Coulter brand style cell counter. For cell culture experiments, the following conditions were used: PMA: 200 ng/ml (Calbiochem, LaJolla, Calif.), Ionomycine: 5 μM (Sigma, St. Louis, Mo.), a 3% H202 solution was diluted 1:300 in basal media, 0.1% BSA to result in a 0.01% H202 solution, ZVAD 5 μM.

DSCR1 [2] = test: Western blot of DSCR1 protein in whole cell extracts of HUVECs; conditions: 6 hours of stimulation
Method: (§2) Cells cultured in 10-cm dishes were washed twice in Tris (tris(hydroxymethyl)aminomethane)-buffered saline, and 0.6 mL RIPA buffer (10 mM PBS, 1% Nonidet P-40, 0.5% sodium deoxycholate, 0.1% sodium dodecyl sulfate [SDS], […] phenylmethylsulfonyl fluoride, 30 μg/mL aprotinin, 1 mM sodium orthovanadate), and protease inhibitors (Roche Pharmaceuticals, Gaithersburg, Md.) were added. Mouse monoclonal antibody (mAb) directed against human NFATc 1, c2, and c3 was purchased from Santa Cruz Biotechnology (Santa Cruz, Calif.). Affinity-purified goat polyclonal antibody against human E-selectin, vascular cell adhesion molecule-1 (VCAM-1), intercellular adhesion molecule-1 (ICAM-1), and Cox-2 was from BD Pharmingen. Total endothelial cell extract, polyacrylamide gel electrophoresis (PAGE), blotting, and immunodetection were performed according to the Santa Cruz Biotechnology protocol. A total of […] whole-cell extract was loaded on each lane of a 4% to 16% polyacrylamide gel. The enhanced chemiluminescence (ECL) reaction kit was purchased from Amersham Pharmacia Biotech (Piscataway, N.J.), and horseradish peroxidase streptavidin from Vector Laboratories (Burlingame, Calif.) was used. For NFATc1 experiments, equal amounts of cell extract were loaded to visualize NFATc1 (mAb 7A6; 1:500; Santa Cruz Biotechnology) and the loading control α-tubulin (mAb from ICN, Santa Ana, Calif.; 1:5000). For Cox-2 and TF immunoblot analysis equal amounts of cell lysate were loaded on a 6% to 12% gradient SDS-PAGE. Cox-2 was analyzed with an anti-Cox2 mAb (RDI, 1:500) and TF with an anti-hTF mAb (clone 7G11) was generated at Genentech, and used at a 1:500 dilution. Before loading the samples on the gel, the protein amounts were quantified and adjusted accordingly. As loading control, an anti-γ-adaptin mAb was used (1:1000) on a 4% to 20% polyacrylamide gel.
DSCR1 was PCR amplified with primers DSCR1-EcoRI-Pro 5′, adding an extra proline and DSCR1-Stop-XhoI 3′, by using DSCR1 cDNA as a template and cloned into pGEX-KG. GST-DSCR1 was expressed and purified essentially as described previously.^23 Polyclonal rabbit anti-GST-DSCR1 was prepared by immunization with recombinant GST-DSCR1. Filtered crude serum was used for Western blots (1:400).

Cox-2, E-selectin, TF = test: Real-time RT-PCR of inflammatory marker / VEGF target genes in HUVECs; conditions: activated endothelial cells, 4 hours of incubation
From the text: as §1

NFAT = NFAT luciferase reporter gene assay in endothelial cells
Method: For HUVEC and human microvascular endothelial cell (HMVECs) transient transfections, cells (7.5×104) were plated per well of a 6-well dish in 3 mL growth medium (Primaria; BD Biosciences, Bedford, Mass.). The amounts of plasmid DNA used in the lipofection mixture were calculated for transfection of the total of 3 wells. Then, 1.25 μg expression vector, 3.75 μg luciferase reporter, and 2.0 μg SV-Renilla reference reporters were mixed and 14 μL F1 lipofectin reagent (Targeting Systems, Santee, Calif.) was added. Then, 4.5 mL high-glucose Dulbecco modified Eagle medium (DMEM) was added to the mixture. Transient transfection was conducted as recommended by the manufacturer. For reporter gene expression experiments, cells were lysed by using the Dual Luciferase Reporter Kit (Promega, San Luis Obispo, Calif.) in 300 μL of 1×passive lysis buffer following the recommendations of the manufacturer.
For transient transfection experiments including siRNA, HUVECs were plated in 6-well plates as described for transient transfection experiments. For 6 replicas, 600 pmol siRNA (Dharmacon, Lafayette, Colo.), 7.5 μg luciferase, and 4 μg Renilla reporter construct were mixed in 6 mL high-glucose DMEM. For FACS and immunohistochemical (IHC) experiments, 11.5 μg enhanced green fluorescent protein (EGFP) plasmid was added instead of the luciferase plasmid. […]

DSCR1 [3] = test: Western blot of DSCR1 after siRNA transfection of HUVECs
Method: as §2, with “The enhanced chemiluminescence (ECL) reaction kit was purchased from Amersham Pharmacia Biotech (Piscataway, N.J.), and horseradish peroxidase streptavidin from Vector Laboratories (Burlingame, Calif.) was used. For NFATc1 experiments, equal amounts of cell extract were loaded to visualize NFATc1 (mAb 7A6; 1:500; Santa Cruz Biotechnology) and the loading control α-tubulin (mAb from ICN, Santa Ana, Calif.; 1:5000). For Cox-2 and TF immunoblot analysis equal amounts of cell lysate were loaded on a 6% to 12% gradient SDS-PAGE.” left out, “As loading control, an anti-γ-adaptin mAb was used (1:1000) on a 4% to 20% polyacrylamide gel.” left out

[4] = tested on: TF, VCAM-1, E-selectin, ICAM-1; test: FACS analysis of inflammatory markers on GFP+ siRNA-transfected HUVECs
Method: For transient transfection experiments including siRNA, HUVECs were plated in 6-well plates as described for transient transfection experiments. For 6 replicas, 600 pmol siRNA (Dharmacon, Lafayette, Colo.), 7.5 μg luciferase, and 4 μg Renilla reporter construct were mixed in 6 mL high-glucose DMEM. For FACS and immunohistochemical (IHC) experiments, 11.5 μg enhanced green fluorescent protein (EGFP) plasmid was added instead of the luciferase plasmid. Prior to incubation at 37° C. for 25 to 30 minutes, 30 μL Targefect solution A and 60 μL Targefect solution B (Targeting Systems) were added to the mixture; 1 mL of this solution was used for lipofection as described. Cells were washed twice with PBS prior to addition of serum-free medium and dosing for the indicated amount of time.

DSCR1 [5] = test: DSCR1 expression by real-time RT-PCR in HPAECs, HMVECs and HUAECs; conditions: HMVECs, HUAECs
From the text: Cells and cell assays. Primary human endothelial cells were purchased from Clonetics (Santa Rosa, Calif.) and cultured according to the manufacturer's instructions. For gene calling experiments, human umbilical vein endothelial cells (HUVECs) were purchased from Clonetics (BioWhittaker, Walkersville, Md.) and maintained in endothelial growth medium (EBM-2) complemented with 5% fetal calf serum (FCS) following the manufacturer's instructions. Cells (1×107) were split at a cell density of 19 000 cell/cm2 and triplicate experiments for each condition were run in parallel. Twenty-four hours after plating the cells, cell were washed 3 times with phosphate-buffered saline (PBS) and media (Clonetics) containing either 0.1% bovine serum albumin (BSA) or 0.1% BSA plus VEGF (30 ng/mL) or 5% FCS. RNA isolation and reverse transcription-PCR (RT-PCR) analysis was performed as described.^21 For cell culture experiments, the following conditions were used: human (h) VEGF, 30 ng/mL; hTNF-α, 10 ng/mL; PMA, 200 ng/mL (Calbiochem, LaJolla, Calif.); CsA, 1 μM (Calbiochem); IO 5 μM (Sigma, St Louis, Mo.); thapsigargin, 50 nM (Sigma). […] 24 hours after serum starvation and dosing, cell were counted on a Coulter brand style cell counter. […]

[6] = GFP+ activated endothelial cells

Row | Molecule | DSCR1 mRNA levels (DSCR1 [1]) | DSCR1 protein levels (DSCR1 [2]) | DSCR1 expression levels (real-time RT-PCR) (DSCR1 [1]) | also measured
1 | C/C=C(/C)C(=O)O[C@H]1C(C)=C2[C@H]([C@@H]1OC(=O)CCCCCCC)[C@@](C)(OC(C)=O)C[C@H](OC(=O)CCC)[C@@]1(O)[C@H]2OC(=O)[C@@]1(C)O [thapsigargin, reference compound] | significantly increased | induction of DSCR1 | – | induction of COX2, E-selectin and TF mRNA (Cox-2, E-selectin, TF): significant induction
2 | b-FGF: basic fibroblast growth factor, R&D Systems | – | no significant increase | did not alter DSCR1 levels significantly | –
3 | TNF-α | significantly increased | unable to detect increased DSCR1 protein levels | – | –
4 | siDSCR1: siRNA to DSCR1 (NM_004414): pool of four in VEGF studies, AACGUAUGACAAGGACAUCAC in PMA/IO studies (one strand only stated, further chemistry not given here) | – | – | – | increase in NFAT activity relative to siControl (NFAT; HUVECs in presence of IO/PMA): 2 fold; increase in NFAT activity relative to siControl (NFAT; HUVECs in presence of VEGF): 3 fold; DSCR1 protein expression from cotransfected PRKN-DSCR1-FLAG (DSCR1 [3]; anti-Flag Western blot): complete absence; reduction in endogenous DSCR1 levels (DSCR1 [3]; rabbit polyclonal antiserum Western blot): 50% to 70%; ICAM-1 expression [4, 6]: not significantly affected; expression levels of TF, E-selectin and VCAM-1 [4, 6]: increase; magnitude of induction of inflammatory gene expression in VEGF-stimulated versus PMA/IO-stimulated cells ([4]; GFP+ endothelial cells): clearly below
5 | ionomycine [reference compound] | significantly increased | – | – | –
6 | B1 | – | – | equally potent to VEGF | DSCR1 expression (real-time RT-PCR) (DSCR1 [5]): increased levels of DSCR1 expression
7 | B2 | – | – | failed to induce alterations in DSCR1 expression | –
8 | B3 | – | – | failed to induce alterations in DSCR1 expression | –
